In data set [1] the test system is NIH Aspergillus fumigatus isolate 4215. In words: Neutropenic rabbit model of invasive pulmonary aspergillosis (New Zealand White rabbits). The format is in vivo. The following applies: intravenously once daily. The procedure: A study was conducted to evaluate the efficacy of the combination of SCY-078 with isavuconazole. Isavuconazole is a second generation antifungal triazole with activity against Aspergillus spp. As described above, invasive pulmonary aspergillosis is a life-threatening infection in immunosuppressed patients—particularly those with severe and prolonged neutropenia as a consequence of myelotoxic chemotherapy for the treatment of cancer, and those receiving immunosuppressive medication for rejection prophylaxis after organ transplantation or treatment of graft-versus-host disease (GVHD) after allogeneic bone marrow transplantation. A neutropenic rabbit model was selected for this in vivo evaluation to further illustrate the effect of the combination therapy of SCY-078 and an azole, in a relevant immunosuppressed population.
New Zealand White rabbits weighing 2.5 to 3.5 kg (Covance Research Products, Inc., Denver, Pa.) were used in this study. Vascular access was established by the surgical placement of a silastic tunneled central venous catheter. Cytosine arabinoside (Cytosar-U) 525 mg/m^2 was administered intravenously on days 1 through 5, and on days 8, 9, 13 and 14 to produce profound and persistent neutropenia (a neutrophil concentration of <100 neutrophils/μL). Methylprednisolone (Solu-Medrol®, Pfizer, NY) 5 mg/kg was administered on days 1 through 3 to inhibit macrophage activity. […]
Survival, pulmonary infarct, and galactomannan antigenemia (a serological marker of Aspergillus infection) were evaluated as indicators of treatment response. […] Serum galactomannan concentrations were determined by the Platelia® Aspergillus enzyme immunoassay (EIA) (Bio-Rad, Marnes-la-Coquette, France) one-stage immunoenzymatic sandwich microplate assay method. Enzyme immunoassay data were expressed as a serum GMI (galactomannan index) plotted over time.

A short description of the next data set: Solubility in water. The format is physicochemical. The text has this:
Each drug was initially diluted in either sterile, distilled water or in DMSO, depending on whether the drug was water-soluble or water-insoluble, respectively.

Molecules are shown by their SMILES.

Regarding `C[C@@H](c1nc(-c2ccc(C#N)cc2)cs1)[C@](O)(Cn1cncn1)c1cc(F)ccc1F` [Isavuconazole, isavuconazole], the “survival rate up to day 13” value in data set [1] (ISA40: isavuconazole 40 mg/kg/day alone, 2 out of 6) was 32%.

Regarding `CC(C)[C@@H](C)[C@@]1(C)CC[C@]2(C)[C@H]3CC[C@@H]4[C@@]5(COC[C@@]4(C)[C@@H](OC[C@](C)(N)C(C)(C)C)[C@H](n4ncnc4-c4ccncc4)C5)C3=CC[C@@]2(C)[C@@H]1C(=O)O` [SCY-078, (1S,4aR,6aS,7R,8R,10aR,10bR,12aR,14R,15R)-15-[[(2R)-2-amino-2,3,3-trimethylbutyl]oxy]-8-[(1R)-1,2-dimethylpropyl]-14-[5-(4-pyridinyl)-1H-1,2,4-triazol-1-yl]-1,6,6a,7,8,9,10,10a,10b,11,12,12a-dodecahydro-1,6a,8,10a-tetramethyl-4H-1,4a-propano-2H-phenanthro[1,2-c]pyran-7-carboxylic acid], the Solubility in water entry in the data set “Solubility in water” is listed as “not soluble in water”. Further, in data set [1] (SCY2.5: SCY-078 2.5 mg/kg/day alone, 1 out of 6), the “survival rate up to day 13” value came to 16%. For the same compound, the “survival until day 13” value in data set [1] (SCY7.5: SCY-078 7.5 mg/kg/day alone, six per group) is “no animals surviving until day 13”.

These data come from patent publication US11110102B2, “Antifungal agents used in combination” (Scynexis, Inc., priority 2017, dated 2021).
